# How the values were obtained:
# [1] = system: MCF-7 (breast cancer) cell line; assay: MTT cell viability assay, MCF-7; format: cell-based, human; details: MTT assay, 72 h of incubation
# Procedure: (§1) Compounds 8–24 were evaluated in vitro for their cytotoxic effect against three human cancer cell lines, i.e., HeLa (cervical cancer), HCT-116 (colon cancer) and MCF-7 (breast cancer), and the non-tumor cell line HaCaT using the MTT assay after 72 h of incubation. The results of tests are presented in Table 1 as IC50, indicating the concentration required for 50% inhibition of cell viability. Compounds 8–10 and 14–18 are not presented in the Table 1 because of their low potency (IC50 > 100 µM).
# (§2) All chemicals, if not stated otherwise, were obtained from Sigma-Aldrich (St. Louis, MO, USA). The MCF-7, HeLa and HaCaT cell lines were purchased from Cell Lines Services (Eppelheim, Germany), and the HCT-116 cell line was purchased from ATCC (ATCC-No: CCL-247). The cells were cultured in Dulbecco’s modified Eagle’s medium (DMEM) supplemented with 10% fetal bovine serum, 2 mM glutamine, 100 units/mL of penicillin and 100 μg/mL of streptomycin. The cultures were maintained in a humidified atmosphere with 5% CO2 at 37 °C, in an incubator (Heraeus, HeraCell).
# (§3) Cytotoxicity assay: Cell viability was determined using the MTT (3-(4,5-dimethylthiazol-2-yl)-2,5diphenyltetrazoliumbromide) assay. The cells were seeded in 96-well plates at a density of 5 × 10^3 cells/well and treated for 24, 48 and 72 h with the examined compounds in the concentration range 1–100 μM. Following treatment, MTT (0.5 mg/mL) was added to the medium, and the cells were further incubated for 2 h at 37 °C. the cells were lysed with DMSO, and the absorbance of the formazan solution was measured at 550 nm with a plate reader (Victor, 1420 multilabel counter). The experiment was performed in triplicate. The values are expressed as the mean ± SD of at least three independent experiments.
# [2] = system: HaCaT (immortalized human keratinocytes); assay: MTT cell viability assay, non-tumor HaCaT; format: cell-based; details: 72 h of incubation, non-tumor cell line
# Procedure: as §1
# We also performed an assay on the non-tumor cell line HaCaT (immortalized human keratinocytes) to assess if the effect of 11–13 was selective toward HeLa cells or resulted from a more general toxic activity.
# as §2, §3
# [3] = system: HeLa, HCT-116 and MCF-7 cell lines; assay: MTT screening, statements pooled over the three cancer cell lines; format: cell-based; details: Homo sapiens, 72 h, HCT-116, MCF-7, read-out: IC50 (low potency, not shown in Table 1)
# Procedure: as §1, §2, §3
# [4] = system: HCT-116 (colon cancer) cell line; assay: MTT cell viability assay, HCT-116; format: cell-based; details: Homo sapiens, 72 h of incubation
# Procedure: as §1, §2, §3
# [5] = system: HeLa (cervical cancer) cell line; assay: MTT cell viability assay, HeLa; format: cell-based, human; details: Homo sapiens, HeLa; MTT assay, 72 h of incubation; read-out: IC50 HeLa
# Procedure: as §1
# The cytotoxic activity of 11–13 was determined in a time-dependent manner with the MTT assay (Figure 3).
# HeLa cells were treated with 11, 12 and 13 in the concentration range of 0–20 µM. […] After 48 h, the IC50 values for compounds 11, 12 and 13 were 6, 7 and 6 µM, respectively.
# as §2, §3
SMILES,IC50 [3] [µM],"IC50 ([1]; Homo sapiens, MCF7) [µM]",IC50 [4] [µM],IC50 [5] [µM],also measured
"N.N.[Cl][Pt][Cl] [Cisplatin, reference compound]",–,–,–,–,IC50 [1]: 3 ± 0.1 µM; IC50 [2]: 7.7 ± 0.2 µM
"CCOC(=O)CSc1cc(Cl)c(C)cc1S(=O)(=O)NC(=N)n1ccn(C)c1=S [Compound 14, 4-Chloro-2-ethoxycarbonylmethylthio-N-[imino(3-methyl-2-thioxo-2,3-dihydro-1H-imidazol-1-yl)methyl]-5-methylbenzenesulfonamide]",> 100,–,–,–,–
"Cc1cc(S(=O)(=O)NC(=N)n2ncn(C)c2=S)c(SCc2ccc(Cl)cc2)cc1Cl [Compound 18, 4-Chloro-2-(4-chlorobenzylthio)-N-[imino(4-methyl-5-thioxo-4,5-dihydro-1H-1,2,4-triazol-1-yl)methyl]5-methylbenzenesulfonamide]",> 100,–,–,–,–
"Cc1cc(S(=O)(=O)NC(=N)n2c(=S)[nH]c3ccccc32)c(SCc2ccccc2)cc1Cl [Compound 19, 2-Benzylthio-4-chloro-5-methyl-N-[imino-(2-thioxo-2,3-dihydro-1H-benzo[d]imidazol-1-yl)methyl]benzenesulfonamide]",–,82 ± 4,36 ± 1,60 ± 3,–
"Cc1cc(S(=O)(=O)NC(=N)n2c(=S)[nH]c3ccccc32)c(SCc2ccc(Cl)cc2)cc1Cl [Compound 22, 4-Chloro-2-(4-chlorobenzylthio)-N-[imino-(2-thioxo-2,3-dihydro-1H-benzo[d]imidazol-1-yl)methyl]-5-methylbenzenesulfonamide]",–,73 ± 2,27 ± 0.5,49 ± 2,–
"Cc1cc(S(=O)(=O)NC(=N)n2c(=S)[nH]c3ccccc32)c(SCc2cc3c(cc2Cl)OCO3)cc1Cl [Compound 23, 4-Chloro-2-(6-chlorobenzo [1,3]dioxol-5-ylmethylthio)-N-[imino-(2-thioxo-2,3-dihydro-1H-benzo[d]imidazol-1-yl)methyl]-5-methylbenzenesulfonamide]",–,50 ± 2,34 ± 0.3,57 ± 1,–
"Cc1cc(S(=O)(=O)NC(=N)n2c(=S)[nH]c3ccccc32)c(SCc2cccc3ccccc23)cc1Cl [Compound 24, 4-Chloro-N-[imino-(2-thioxo-2,3-dihydro-1H-benzo[d]imidazol-1-yl)methyl]-5-methyl-2-(naphthalen-1-ylmethylthio)benzenesulfonamide]",–,56 ± 2,21 ± 0.6,33 ± 1,–

# Now from value to molecule, other results behind:
IC50 [3] [µM],"IC50 ([1]; Homo sapiens, MCF7) [µM]",IC50 [4] [µM],IC50 [5] [µM],SMILES,also measured
> 100,–,–,–,"Cc1cc(S(=O)(=O)NC(=N)n2ccn(C)c2=S)c(SCc2ccccc2)cc1Cl [Compound 8, 2-Benzylthio-4-chloro-N-[imino(3-methyl-2-thioxo-2,3-dihydro-1H-imidazol-1-yl)methyl]-5-methylbenzenesulfonamide]",–
> 100,–,–,–,"Cc1cc(S(=O)(=O)NC(=N)n2ccn(C)c2=S)c(SCc2cccc(C(F)(F)F)c2)cc1Cl [Compound 9, 4-Chloro-N-[imino(3-methyl-2-thioxo-2,3-dihydro-1H-imidazol-1-yl)methyl]-5-methyl-2-(3-trifluoromethylbenzylthio)benzenesulfonamide]",–
> 100,–,–,–,"Cc1cc(S(=O)(=O)NC(=N)n2ccn(C)c2=S)c(SCc2ccc(C(F)(F)F)cc2)cc1Cl [Compound 10, 4-Chloro-N-[imino(3-methyl-2-thioxo-2,3-dihydro-1H-imidazol-1-yl)methyl]-5-methyl-2-(4-trifluoromethylbenzylthio)benzenesulfonamide]",–
> 100,–,–,–,"Cc1cc(S(=O)(=O)NC(=N)n2ncn(C)c2=S)c(SCc2ccccc2)cc1Cl [Compound 15, 2-Benzylthio-4-chloro-5-methyl-N-[imino(4-methyl-5-thioxo-4,5-dihydro-1H-1,2,4-triazol-1-yl)methyl]benzenesulfonamide]",–
> 100,–,–,–,"Cc1cc(S(=O)(=O)NC(=N)n2ncn(C)c2=S)c(SCc2ccc(C(F)(F)F)cc2)cc1Cl [Compound 17, 4-Chloro-N-[imino(4-methyl-5-thioxo-4,5-dihydro-1H-1,2,4-triazol-1-yl)methyl]-5-methyl-2-(4-trifluoromethylbenzylthio)benzenesulfonamide]",–
–,49 ± 1,17 ± 0.5,43 ± 1,"Cc1cc(S(=O)(=O)NC(=N)n2c(=S)[nH]c3ccccc32)c(SCc2cccc(C(F)(F)F)c2)cc1Cl [Compound 20, 4-Chloro-N-[imino-(2-thioxo-2,3-dihydro-1H-benzo[d]imidazol-1-yl)methyl]-5-methyl-2-(3-trifluoromethylbenzylthio)benzenesulfonamide]",–
–,62 ± 3,23 ± 0.2,52 ± 1,"Cc1cc(S(=O)(=O)NC(=N)n2c(=S)[nH]c3ccccc32)c(SCc2ccc(C(F)(F)F)cc2)cc1Cl [Compound 21, 4-Chloro-N-[imino-(2-thioxo-2,3-dihydro-1H-benzo[d]imidazol-1-yl)methyl]-5-methyl-2-(4-trifluoromethylbenzylthio)benzenesulfonamide]",–

# — article PMC10253812, “Novel 2-alkythio-4-chloro-N-[imino(heteroaryl)methyl]benzenesulfonamide Derivatives: Synthesis, Molecular Structure, Anticancer Activity and Metabolic Stability” (International Journal of Molecular Sciences, 2023)
